The target in this experiment is Glutamate NMDA receptor. Description: Displacement of [3H]TCP from NMDA receptor in rat brain membrane. The class given is cell membranes. For orientation: In a radioligand displacement assay an active substance lowers the binding of a labelled ligand.
For `NC1(c2ccc(F)cc2)CCCCC1`, affinity was put at a Ki of 5130 nM.

For the compound `NC1(c2cccc(O)c2)CCCCC1`, affinity was put at a Ki of 225 nM.

With `c1ccc(C2(N3CCCCC3)CCCCC2)cc1` [PHENCYCLIDINE], the affinity, expressed as Ki, was 70 nM.

These data come from ChEMBL document CHEMBL1140627, “Adaptive neuro-fuzzy inference system (ANFIS): a new approach to predictive modeling in QSAR applications: a study of neuro-fuzzy modeling of PCP-based NMDA receptor antagonists” (Bioorg Med Chem, 2007).
